66 compounds from ChEMBL document CHEMBL5230154, “Chemical probe of AHL modulators on quorum sensing in Gram-Negative Bacteria and as antiproliferative agents: A review” (Eur J Med Chem, 2021) can be followed below.

pEC50, pIC50: −log10 of the molar value.

Usually pIC50 stands for the negative decadic logarithm of the IC50, by convention in mol/L. A word on the inhibition: it is how much of the control response was suppressed. By pEC50 is commonly meant the negative decadic logarithm of the EC50, by convention in mol/L. Read a low pEC50 as a large EC50.

Tested on in one experiment: not listed separately
Nature of the experiment: Inhibition of quorum sensing system in Chromobacterium violaceum CV026 assessed as inhibition of violacein production incubated for 16 to 18 hrs by spectrophotometric assay.
Settings: not given
As for `O=C(Nc1ccc(S(=O)(=O)N[C@H]2CCOC2=O)cc1)c1cccc(F)c1`, the pIC50 is 5.11.
For the compound `O=C(Nc1ccc(S(=O)(=O)N[C@H]2CCOC2=O)cc1)c1ccccc1Cl`, the pIC50 was 5.78.
On the same count and under the same terms, for `O=C(Nc1ccc(S(=O)(=O)N[C@H]2CCOC2=O)cc1)c1cccc(Cl)c1` the value was 5.07.
On the same count and under the same terms, to `CCCCC(=O)Nc1ccc(S(=O)(=O)N[C@H]2CCOC2=O)cc1` belongs 4.31; to `O=C(Nc1ccc(S(=O)(=O)N[C@H]2CCOC2=O)cc1)c1ccccc1`, 4.76; to `O=C(Nc1ccc(S(=O)(=O)N[C@H]2CCOC2=O)cc1)c1ccccc1F`, 5.79.
Still for that read-out and setting: to `O=C(Nc1ccc(S(=O)(=O)N[C@H]2CCOC2=O)cc1)c1ccc(F)cc1` belongs 4.83; to `O=C(Nc1ccc(S(=O)(=O)N[C@H]2CCOC2=O)cc1)c1ccc(Cl)cc1`, 4.80.
In the case of `CCCCCC(=O)Nc1ccc(S(=O)(=O)N[C@H]2CCOC2=O)cc1`, the pIC50 is 4.54.
Still for that read-out and setting: for `O=C(Nc1ccc(S(=O)(=O)N[C@H]2CCOC2=O)cc1)c1ccccc1C(F)(F)F` the value was 5.31.

The next experiment deals with Escherichia coli. Nature of the experiment: Inhibition of Escherichia coli DH5alpha LasR co-expressing LasR beta-galactosidase reporter assessed as inhibition of beta-galactosidase activity at 100 uM incubated for 2 hrs by spectrophotometric assay.
Settings: not given
Turning to `CCCCCc1cn(CC(=O)N[C@H]2CCOC2=O)nn1`, the inhibition turned out to be 55%.
For the compound `O=C(Cn1cc(C2CCCC2)nn1)N[C@H]1CCOC1=O`, the inhibition worked out at 70%.
Take `COc1ccc(-n2cc(CCC(=O)N[C@H]3CCOC3=O)nn2)cc1`: the inhibition amounted to 75%.
Same read-out and setting: for `CCCCc1cn(CC(=O)N[C@H]2CCOC2=O)nn1` the value was 75%; for `O=C(Cn1cc(C2CCCCC2)nn1)N[C@H]1CCOC1=O`, 72%; for `O=C(Cn1cc(-c2cc(F)cc(F)c2)nn1)N[C@H]1CCOC1=O`, 71%.
For `O=C(N[C@H]1CCOC1=O)c1ccc(-n2cc(CSc3ccccc3)nn2)cc1`, the inhibition is 62%.
Same read-out and setting: for `O=C(Cn1cc(C2CC2)nn1)N[C@H]1CCOC1=O` the value was 52%.
The same measure, in the same setting: for `O=C(Cn1cc(CC2CCCCC2)nn1)N[C@H]1CCOC1=O` the value was 14%.
On the same count and under the same terms, for `Cc1ccc(-n2cc(CCC(=O)N[C@H]3CCOC3=O)nn2)cc1` the value was 72%.
As to `O=C(Cn1cc(-c2ccccc2)nn1)N[C@H]1CCOC1=O`, the inhibition was determined as 89.6%.

Tested on in a further experiment: not listed separately
The experiment can be described thus: Inhibition of Escherichia coli DH5alpha LasR co-expressing LasR beta-galactosidase reporter assessed as inhibition of beta-galactosidase activity incubated for 2 hrs by spectrophotometric assay.
Settings: not given
Take `Nc1cccc(-n2cc(CCC(=O)N[C@H]3CCOC3=O)nn2)c1`: the pIC50 is 5.39.
Same read-out and setting: to `CCCCCc1cn(CC(=O)N[C@H]2CCOC2=O)nn1` belongs 5.49; to `O=C(Cn1cc(C2CCCC2)nn1)N[C@H]1CCOC1=O`, 4.79; to `COc1ccc(-n2cc(CCC(=O)N[C@H]3CCOC3=O)nn2)cc1`, 4.78.
Take `CCCCc1cn(CC(=O)N[C@H]2CCOC2=O)nn1`: the pIC50 was 4.75.
With `O=C(Cn1cc(C2CCCCC2)nn1)N[C@H]1CCOC1=O`, the pIC50 is 4.91.
Take `O=C(Cn1cc(-c2cc(F)cc(F)c2)nn1)N[C@H]1CCOC1=O`: the negative logarithm of the IC50 (pIC50) was 4.86.
Still for that read-out and setting: for `O=C(N[C@H]1CCOC1=O)c1ccc(-n2cc(CSc3ccccc3)nn2)cc1` the value was 5.58; for `Cc1ccc(-n2cc(CCC(=O)N[C@H]3CCOC3=O)nn2)cc1`, 4.96.
Consider `O=C(Cn1cc(-c2ccccc2)nn1)N[C@H]1CCOC1=O`, for which the pIC50 was 4.80.

The test system of a further experiment is Pseudomonas aeruginosa. Nature of the experiment: Inhibition of quorum sensing system in Pseudomonas aeruginosa MH602 PlasB-gfp(ASV) assessed as inhibition of green fluorescent protein production at 62.5 to 250 uM for 20 hrs by fluorescence assay. The conditions noted are these: dose 62.5-250 µM.
Turning to `O=C(Cn1cc(-c2ccc(O)cc2)nn1)Nc1nc2ccccc2[nH]1`, the inhibition turned out to be 34%.
Turning to `O=C(Cn1cc(-c2ccc(F)cc2)nn1)Nc1nc2ccccc2[nH]1`, the inhibition was 49%.
Still for that read-out and setting: for `O=C(Cn1cc(-c2cccc([N+](=O)[O-])c2)nn1)Nc1nc2ccccc2[nH]1` the value was 28.2%.
In the case of `Cc1cc2nc(NC(=O)Cn3cc(-c4ccc(C(F)(F)F)cc4)nn3)[nH]c2cc1C`, the inhibition is 36.1%.
The same measure, in the same setting: to `O=C(Cn1cc(-c2ccc(C(F)(F)F)cc2)nn1)Nc1nc2ccccc2[nH]1` belongs 57.5%.
Consider `O=C(Cn1cc(-c2ccc(Br)cc2)nn1)Nc1nc2ccccc2[nH]1`, for which the inhibition came to 45.7%.
For `Cc1ccc(-c2cn(CC(=O)Nc3nc4ccccc4[nH]3)nn2)cc1`, the inhibition was 32%.
Turning to `O=C(Cn1cc(-c2ccc([N+](=O)[O-])cc2)nn1)Nc1nc2ccccc2[nH]1`, the inhibition was found to be 63.7%.

The target in the next experiment is T1, Transcriptional activator protein LasR (Pseudomonas aeruginosa (strain ATCC 15692 / PAO1 / 1C / PRS 101 / LMG12228), UniProt P25084).
T1 sequence (P25084 whole entry): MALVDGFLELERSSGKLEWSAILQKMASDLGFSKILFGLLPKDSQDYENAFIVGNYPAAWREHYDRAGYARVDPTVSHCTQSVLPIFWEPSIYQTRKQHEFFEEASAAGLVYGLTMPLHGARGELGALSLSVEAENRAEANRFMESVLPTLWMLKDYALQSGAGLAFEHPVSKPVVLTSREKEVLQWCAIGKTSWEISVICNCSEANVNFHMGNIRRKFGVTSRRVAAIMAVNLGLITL
Nature of the experiment: Antagonist activity against LasR-mediated quorum sensing system in Pseudomonas aeruginosa PAO1 by spectrophotometric assay.
Settings: not given
`COc1cccc(/C=C/C(=O)c2ccc(NCC(=O)N[C@H]3CCOC3=O)cc2)c1` gave a pIC50 of 4.25.
Compound `O=C(CNc1ccc(C(=O)/C=C/c2ccccc2)cc1)N[C@H]1CCOC1=O` gave a negative-log IC50 (pIC50) of 4.20.
Still for that read-out and setting: to `O=C(CNc1ccc(C(=O)/C=C/c2ccc(Br)cc2F)cc1)N[C@H]1CCOC1=O` belongs 4.58; to `O=C(CNc1ccc(C(=O)/C=C/c2ccc(Br)cc2)cc1)N[C@H]1CCOC1=O`, 4.33.
Same read-out and setting: to `O=C(CNc1ccc(C(=O)/C=C/c2ccccc2Cl)cc1)N[C@H]1CCOC1=O` belongs 4.17.
On the same count and under the same terms, for `O=C(CNc1ccc(C(=O)/C=C/c2ccccc2Br)cc1)N[C@H]1CCOC1=O` the value was 4.42; for `O=C(CNc1ccc(C(=O)/C=C/c2cc(Cl)cc(Cl)c2)cc1)N[C@H]1CCOC1=O`, 4.33.
In the case of `O=C(CNc1ccc(C(=O)/C=C/c2ccc(Cl)c(Cl)c2)cc1)N[C@H]1CCOC1=O`, the pIC50 was 4.33.
On the same count and under the same terms, for `O=C(CNc1ccc(C(=O)/C=C/c2ccc(F)cc2)cc1)N[C@H]1CCOC1=O` the value was 4.33; for `O=C(CNc1ccc(C(=O)/C=C/c2ccc(Cl)cc2)cc1)N[C@H]1CCOC1=O`, 4.33.

Tested on in the next experiment: not listed separately
Nature of the experiment: Agonist activity against RhlR in Escherichia coli expressing JLD271/pJN105R2/pSC11-rhlI using CPRG as substrate by spectrophotometric assay.
Settings: not given
As for `C/C=C/CCC(=O)N[C@H]1CCOC1=O`, the pEC50 was 5.16.
In turn, `CCCCCC(=O)N[C@H]1CCOC1=O` gave a pEC50 of 4.97.
On to `CC(C)CCC(=O)N[C@H]1CCOC1=O`, for which the negative-log EC50 (pEC50) is 5.31.
Same read-out and setting: to `O=C(CCC1CC1)N[C@H]1CCOC1=O` belongs 5.56.
Still for that read-out and setting: to `CCC(C)CC(=O)N[C@H]1CCOC1=O` (stereo not given in full) belongs 5.11.

Tested on in a further experiment: not listed separately
The experiment can be described thus: Antagonist activity against quorum sensing system in Vibrio harveyi BB120 assessed as inhibition of […] incubated for 5 hrs by bioluminescence assay.
Settings: not given
Regarding `CCOC(=O)CC(=O)c1ccc(Br)cc1`, the pIC50 is 4.09.
Still for that read-out and setting: to `CCOC(=O)CC(=O)c1ccc(I)cc1` belongs 4.41; to `CCOC(=O)CC(=O)c1ccc(Cl)cc1`, 4.28.
For `CCOC(=O)CC(=O)c1ccc(OC)cc1`, the negative logarithm of the IC50 (pIC50) was 4.44.
Same read-out and setting: for `CCOC(=O)CC(=O)c1cccc2ccccc12` the value was 4.12; for `CCOC(=O)CC(=O)c1ccccc1`, 4.12.
Still for that read-out and setting: to `CCOC(=O)CC(=O)c1cccc(OC)c1` belongs 4.39; to `CCOC(=O)CC(=O)c1ccc(F)cc1`, 4.64.
In the case of `CCOC(=O)CC(=O)c1cccc([N+](=O)[O-])c1`, the pIC50 is 4.15.
On the same count and under the same terms, to `CCOC(=O)CC(=O)c1ccc(C)cc1` belongs 4.02.
The same measure, in the same setting: to `CCOC(=O)CC(=O)c1cccc(C)c1` belongs 4.25; to `CCOC(=O)CC(=O)c1ccc([N+](=O)[O-])cc1`, 4.28.

Another experiment deals with Pseudomonas aeruginosa. Nature of the experiment: Inhibition of quorum sensing system in Pseudomonas aeruginosa MH602 expressing PlasB::gfp assessed as inhibition of GFP fluorescence expression at 250 uM incubated for 15 hrs by fluorescence microplate reader analysis.
Settings: not given
On to `O=C(NCc1ccccc1)c1ccc(N2CC(Cl)=C(Cl)C2=O)cc1`, for which the inhibition was 30%.
Same read-out and setting: for `CCCCCCNC(=O)c1ccc(N2CC(Cl)=C(Cl)C2=O)cc1` the value was 30%; for `CCCCN1CC(Cl)=C(Cl)C1=O`, 71.4%; for `C=CCN1CC(Cl)=C(Cl)C1=O`, 76.4%.
Still for that read-out and setting: for `CCCCNC(=O)c1ccc(N2CC(Cl)=C(Cl)C2=O)cc1` the value was 30%; for `CCCCCCN1CC(Cl)=C(Cl)C1=O`, 68%.

A further experiment relates to Pseudomonas aeruginosa. The experiment can be described thus: Inhibition of Pseudomonas aeruginosa MH602 harboring PlasB::gfp(ASV) reporter assessed as decrease in GFP expression at 250 uM incubated for 22 hrs by fluorescence microplate reader analysis.
Settings: not given
Take `Cc1ccc2c(c1)C(=O)C(=O)N2C(=O)CCl`: the inhibition amounted to 57.4%.
Same read-out and setting: to `O=C1Cn2nncc2CNC(=O)C(=O)c2cc(F)ccc2NC(=O)Cn2nncc2CNC(=O)C(=O)c2cc(F)ccc2N1` belongs 46%; to `Cc1ccc2c(c1)C(=O)C(=O)NCc1cnnn1CC(=O)Nc1ccc(C)cc1C(=O)C(=O)NCc1cnnn1CC(=O)N2`, 58.6%.
